Data from ChEMBL document CHEMBL3217433, “Identification of pyrazolo-pyrimidinones as GHS-R1a antagonists and inverse agonists for the treatment of obesity” (Medchemcomm, 2013).
Values after ≈ are worked out from the molar mass of the structure shown.

How the values were obtained:
[1] = Lipophilicity, log D of the compound by HPLC analysis; type: physicochemical
[2] = Octanol-buffer partition coefficient, log D of the compound at pH 7.4 after 30 mins by shake-flask method; type: physicochemical
[3] = Aqueous solubility of the compound in phosphate buffer at pH 7.4 after 24 hrs by LC-UV analysis; type: physicochemical
[4] = Dissociation constant, pKa of the compound; type: physicochemical
[5] = Drug uptake in mouse brain at 20 mg/kg, po measured at 1 hr; type: ADME, organism-based; design: dose 20 mg/kg, route oral; settings: read-out: Drug uptake
[6] = Plasma concentration in mouse at 20 mg/kg, po measured at 1 hr; type: ADME, organism-based; design: dose 20 mg/kg, route oral
[7] = Intrinsic clearance in human liver microsomes; type: ADME; settings: read-out: CLH

SMILES | logD at 0.5 h [2] | pKa [4] | microsomal CLint [7] | further results
Cc1ccccc1-c1nc2ccc(-c3ccc(Cl)cc3)cc2c(=O)n1C[C@H]1CCCN(C(C)C)C1 | > 4.3 |  |  | logD [1]: 5; solubility at 24 h [3]: 45 µM (≈ 21.9 µg/mL)
COCCN1CCC[C@@H](Cn2c(-c3ccccc3C)nc3cc(-c4ccc(Cl)cc4)sc3c2=O)C1 | > 4.3 | 8.5 |  | logD [1]: 5.6
COCCN1CCC[C@@H](Cn2c(-c3ccccc3C)nc3nc(-c4ccc(Cl)cc4)sc3c2=O)C1 | 3.5 | 9.2 |  | logD [1]: 5.1
COCCN1CCC[C@@H](Cn2c(-c3ccccc3C)nc3cn(-c4ccc(Cl)cc4)nc3c2=O)C1 | 3.3 | 8.5 |  | logD [1]: 3.7
COc1cccc(-n2cc3nc(-c4cccnc4C)n(C[C@H]4CCCN(C(C)C)C4)c(=O)c3n2)c1 | 1.3 | 9.7 |  | solubility at 24 h [3]: > 2700 µM
COCCN1CCC[C@H](Cn2c(-c3cccnc3C)nc3cn(-c4cccc(OC)c4)nc3c2=O)C1 | 1.3 | 8.4 |  | 
COCCN1CCC[C@H](Cn2c(-c3cccnc3C)nc3cn(C4CCCCC4)nc3c2=O)C1 | 1.4 |  |  | 
COc1cccc(-n2cc3nc(-c4cccnc4C)n(C[C@H]4CCCN(C[C@H]5CCCO5)C4)c(=O)c3n2)c1 | 2 |  | 17 µL/min/mg | concentration at 1 h [5]: 240 nM; concentration at 1 h [6]: 1200 nM; solubility at 24 h [3]: > 1500 µM
COc1cccc(-n2cc3nc(C)n(C[C@H]4CCCN(C[C@H]5CCCO5)C4)c(=O)c3n2)c1 | 1.9 |  | 16 µL/min/mg | 
COc1cccc(-n2cc3nc(CC(C)C)n(C[C@H]4CCCN(C[C@H]5CCCO5)C4)c(=O)c3n2)c1 | 3.1 |  | 60 µL/min/mg | 
Cc1ncccc1-c1nc2cn(-c3ccccc3)nc2c(=O)n1C[C@H]1CCCN(C[C@H]2CCCO2)C1 | 1.7 |  | 15 µL/min/mg | 
COc1ccc(-n2cc3nc(-c4cccnc4C)n(C[C@H]4CCCN(C[C@H]5CCCO5)C4)c(=O)c3n2)cc1 | 1.9 |  | 21 µL/min/mg | 
CCOc1cccc(-n2cc3nc(-c4cccnc4C)n(C[C@H]4CCCN(C[C@H]5CCCO5)C4)c(=O)c3n2)c1 | 2.5 |  | 30 µL/min/mg | 
CCCOc1cccc(-n2cc3nc(-c4cccnc4C)n(C[C@H]4CCCN(C[C@H]5CCCO5)C4)c(=O)c3n2)c1 | 2.9 |  | 67 µL/min/mg | 
Cc1ncccc1-c1nc2cn(-c3cccc(OC(C)C)c3)nc2c(=O)n1C[C@H]1CCCN(C[C@H]2CCCO2)C1 | 2.7 |  | 51 µL/min/mg | 
Cc1ncccc1-c1nc2cn(-c3cccc(OC(F)F)c3)nc2c(=O)n1C[C@H]1CCCN(C[C@H]2CCCO2)C1 | 2.2 |  | 33 µL/min/mg | 
Cc1ccccc1-c1nc2cc(-c3ccc(Cl)cc3)sc2c(=O)n1CC1CCCN(C(C)C)C1 (racemic) |  |  |  | logD [1]: 4.8
Cc1ccccc1-c1nc2cn(-c3ccc(Cl)cc3)nc2c(=O)n1CC1CCCN(C(C)C)C1 (racemic) |  | 10 |  | logD [1]: 3.2
Cc1ccccc1-c1nc2cn(-c3ccc(F)cc3)nc2c(=O)n1CC1CCCN(C(C)C)C1 (racemic) | 2.3 | 10 |  | 
Cc1ccccc1-c1nc2cn(-c3ccc(C#N)cc3)nc2c(=O)n1CC1CCCN(C(C)C)C1 (racemic) |  | 10 |  | 
COc1ccc(-n2cc3nc(-c4ccccc4C)n(CC4CCCN(C(C)C)C4)c(=O)c3n2)cc1 (racemic) | 2.4 | 10 |  | 
Cc1ccccc1-c1nc2cn(-c3cccc(Cl)c3)nc2c(=O)n1CC1CCCN(C(C)C)C1 (racemic) | 3 | 9.8 |  | 
COc1cccc(-n2cc3nc(-c4ccccc4C)n(CC4CCCN(C(C)C)C4)c(=O)c3n2)c1 (racemic) | 2.5 | 10 |  | 
Cc1ccccc1-c1nc2cn(-c3cccc(C#N)c3)nc2c(=O)n1CC1CCCN(C(C)C)C1 (racemic) | 1.8 | 9.9 |  | 
COCCN1CCCC(Cn2c(-c3cccnc3C)nc3cn(-c4ccc(C#N)cc4)nc3c2=O)C1 (racemic) | 1.1 | 8.5 |  | 
Cc1ncccc1-c1nc2cn(-c3ccc(C#N)cc3)nc2c(=O)n1CC1CCCN(C2COC2)C1 (racemic) | 1.2 | 6.4 |  | 
